A short description of the experiment: ET-1 Assay: Fibroblasts (primary human lung and dermal, HFL-1, 3T3 etc) are seeded in 96-well plates at ~15000 cells/well and serum starved for 0-48 hours. After media exchange, compounds serially diluted in DMSO are added to the cells. After a brief incubation of ~30 min, stimulants (TGFb, serum, LPA etc) are added followed by further incubation for 16-48 hours. Media is then harvested and stored frozen in plate format for later endothelin-1 (ET-1) determination by ELISA. Toxicity measurements are made using the ATPlite kit (Perkin-Elmer). ET-1 is quantified using an ELISA kit (R&D Systems). The amount of ET-1 produced in the assay wells are back-calculated using the ELISA standard. The ability of a compound to inhibit ET-1 production is typically analyzed by fitting dose-response curves to a 4-parameter logistic function to obtain an EC50 value. As to conditions: HFL1.
`CCOc1ccc(-n2cc(-c3cnn(C)c3)c(NCc3ccc(OCCOC)cc3)cc2=O)c(C)c1`: the EC50 was under 50 µM. As to `Cc1cc(=O)n(-c2ccc(OC(C)C)cc2C)cc1-c1cnn(C)c1`, the EC50 was over 200 µM. For the compound `Cc1cc(=O)n(-c2ccc(OC(F)(F)F)cc2)cc1-c1cccc(Cl)c1`, the EC50 entry is “in the range around 125 µM”.

Take `Cn1cc(-c2cn(-c3ccc(C#N)cc3)c(=O)c3c2ccn3C)cn1`: the concentration giving a half-maximal response (EC50) is over 200 µM. With `O=c1ccc(C(F)(F)F)cn1-c1cncnc1`, the EC50 was over 200 µM. The result for `CCOC(=O)Nc1cc(=O)n(-c2ccc(OC(F)(F)F)cc2)cc1-c1cnn(C)c1` reads over 200 µM; that for `COc1cccc(-n2cc(Br)ccc2=O)c1`, over 200 µM. Turning to `COc1cc(=O)n(-c2ccc(OC(F)(F)F)cc2)cc1-c1cnn(C)c1`, the EC50 is under 50 µM.

As for `Cc1cc(=O)n(-c2ccccc2F)cc1-c1ccc(F)cc1`, the EC50 result was “in the range around 125 µM”.

With `COc1ccc(-n2cc(-c3ccc(S(N)(=O)=O)cc3)ccc2=O)cc1`, the EC50 is over 200 µM. The result for `CCn1ccc2c(-c3cn[nH]c3)cn(-c3ccc(OC(F)(F)F)cc3)c(=O)c21` reads under 50 µM. The result for `Cn1cc(-c2cn(-c3ccc(OC(F)(F)F)cc3)c(=O)cc2Oc2cc(Cl)cc(C#N)c2)cn1` reads over 200 µM. In the case of `CCOc1ccc(-n2cc(C(F)(F)F)ccc2=O)c(C)c1`, the EC50 result was “in the range around 125 µM”. Take `O=C1CCCN1CCOc1cc(=O)n(-c2ccc(OC(F)(F)F)cc2)cc1-c1ccc(F)cc1`: the EC50 was over 200 µM.

Consider `Cn1cc(-c2cc(=O)n(-c3ccc(OC(F)(F)F)cc3)cc2-c2cnn(C)c2)cn1`, for which the EC50 result is “in the range around 125 µM”.

With `CCCCC(=O)Nc1cc(=O)n(-c2ccc(OC(F)(F)F)cc2)cc1-c1ccc(F)cc1`, the EC50 is over 200 µM. Turning to `Cc1cc(=O)n(-c2ccc(OC(F)(F)F)cc2)cc1-c1ccc2oc(=O)[nH]c2c1`, the EC50 is under 50 µM. As for `Cn1cc(-c2cn(-c3ccc(OC(F)(F)F)cc3)c(=O)cc2NCc2cncnc2)cn1`, the EC50 is under 50 µM. Regarding `COc1cccc(-n2cc(-c3c(C)n[nH]c3C)ccc2=O)c1`, the EC50 entry was “in the range around 125 µM”.

For `N#Cc1cc(=O)n(-c2ccc(OC(F)(F)F)cc2)cc1-c1ccc(F)cc1`, the EC50 was over 200 µM.

For `CCOc1ccc(-n2cc(-c3cn[nH]c3)c3c(c2=O)CCCC3)c(C)c1`, the EC50 was under 50 µM. Turning to `Cn1cc(-c2cn(-c3ccc(OC(F)(F)F)cc3)c(=O)cc2Nc2ccccc2)cn1`, the EC50 is over 200 µM. The value for `Cn1cc(-c2cn(-c3ccc(OC(F)(F)F)cc3)c(=O)c3scnc23)cn1` was under 50 µM; that for `O=c1c(-c2ccc(F)cc2)c(-c2ccc(OC(F)(F)F)cc2)c1=O` was under 50 µM.

As to `Cc1cc(=O)n(-c2ccccc2F)cc1-c1cnn(C)c1`, the EC50 is over 200 µM. The value for `Cc1cc(=O)n(-c2ccc(OC(F)(F)F)cc2)cc1-c1ccc2c(c1)OCC(=O)N2C` was under 50 µM. As to `COCCn1ccc2c(-c3cnn(C)c3)cn(-c3ccc(OC(F)(F)F)cc3)c(=O)c21`, the EC50 was under 50 µM. For the compound `CC(C)c1cc(=O)n(-c2ccc(OC(F)(F)F)cc2)cc1-c1ccc(F)cc1`, the half-maximal effective concentration (EC50) result was “in the range around 125 µM”. Take `O=c1ccc(-c2ccccc2)cn1-c1cccc(F)c1`: the EC50 was over 200 µM. Consider `O=c1ccc(-c2ccc(F)cc2)cn1-c1ccccc1Cl`, for which the EC50 is over 200 µM.

In the case of `O=c1cc(NCc2ccccc2)c(-c2ccc(F)cc2)cn1-c1ccc(OC(F)(F)F)cc1`, the EC50 was over 200 µM. The result for `CCn1cc2c(-c3cnn(C)c3)cn(-c3ccc(OC(F)(F)F)cc3)c(=O)c2n1` reads under 50 µM; that for `Cn1cc(-c2cn(-c3ccc(OC(F)(F)F)cc3)c(=O)c3nc[nH]c23)cn1`, over 200 µM.

Regarding `CCOc1ccc(-n2cc(-c3cnn(C)c3)c(OC)cc2=O)c(C)c1`, the EC50 was under 50 µM. With `O=c1ccc(-c2cnn(Cc3ccccc3)c2)cn1-c1ccccc1`, the half-maximal effective concentration (EC50) result is “in the range around 125 µM”. Consider `Cc1cc(=O)n(-c2cccc(NC(N)=O)c2)cc1-c1ccc(F)cc1`, for which the EC50 is under 50 µM. As to `Cc1n[nH]c(C)c1-c1ccc(=O)n(-c2ccncc2)c1`, the EC50 is over 200 µM.

For `CC(C)Oc1ccc(-n2cc(-c3cccc(Cl)c3)ccc2=O)cc1`, the EC50 is under 50 µM. On to `CC(C)n1ccc2c(-c3cnn(C)c3)cn(-c3ccc(OC(F)(F)F)cc3)c(=O)c21`, for which the EC50 was under 50 µM.

In the case of `CC(=O)c1ccc(=O)n(-c2cccc(F)c2)c1`, the EC50 is over 200 µM. For `COc1cccc(-n2cc(C(C)=O)ccc2=O)c1`, the concentration for a half-maximal effect (EC50) was over 200 µM.

`CCOc1ccc(-n2cc(-c3cnn(C)c3)c(NCc3ccccn3)cc2=O)c(C)c1`: the EC50 entry is “in the range around 125 µM”. The result for `O=c1ccc(-c2ccc(F)cc2)cn1-c1ccccc1F` reads “in the range around 125 µM”; that for `CCOc1ccc(-n2cc(-c3cnn(C)c3)c(NCc3ccc(C#N)cc3)cc2=O)c(C)c1`, under 50 µM; that for `Cc1c(-c2ccc(=O)n(-c3ccc(OC(F)(F)F)cc3)c2)cnn1C`, under 50 µM. Turning to `Cc1cc(=O)n(-c2ccc(OC(F)(F)F)cc2)cc1-c1cccc2c1OCC(=O)N2`, the EC50 was over 200 µM. The value for `Cc1cc(=O)n(-c2ccc(OC(F)(F)F)cc2)cc1-c1ccc2scnc2c1` was under 50 µM; that for `CCOc1ccc(-n2cc(-c3ccc4scnc4c3)c(C)cc2=O)c(C)c1` was over 200 µM; that for `CCn1cc(-c2cn(-c3ccc(OC(F)(F)F)cc3)c(=O)c3c2ncn3CC)cn1` was under 50 µM. For `O=c1c2c(c(-c3ccc(F)cc3)cn1-c1ccc(OC(F)(F)F)cc1)CCCC2`, the EC50 is over 200 µM. Take `Cn1cc(-c2cn(-c3cccc(NC(N)=O)c3)c(=O)cc2Oc2ccccc2)cn1`: the EC50 was under 50 µM. With `Cc1cc(=O)n(-c2ccc(OC(F)(F)F)cc2)cc1-c1ccc2c(c1)OC(C)(C)O2`, the EC50 is over 200 µM. The value for `COc1ccc(-c2ccc(=O)n(-c3ccc(Cl)cc3)c2)cc1` was “in the range around 125 µM”. The value for `N#Cc1ccc(-n2cc(-c3cn[nH]c3)c3ncccc3c2=O)cc1` was over 200 µM; that for `Cn1cc(-c2cn(-c3ccc(Cl)cc3)c(=O)c3[nH]ccc23)cn1` was under 50 µM.

In the case of `O=c1c2cccnc2c(-c2ccc(F)cc2)cn1-c1ccc(OC(F)(F)F)cc1`, the EC50 is over 200 µM.

Turning to `Cc1n[nH]c(C)c1-c1ccc(=O)n(-c2cccc(C(F)(F)F)c2)c1`, the EC50 result is “in the range around 125 µM”. On to `Cc1cc(=O)n(-c2cccc(NC(N)=O)c2)cc1-c1cnn(C)c1`, for which the EC50 is under 50 µM. The value for `CCOc1ccc(-n2cc(-c3cnn(C)c3)c(Oc3ccccc3)cc2=O)c(C)c1` was under 50 µM.

For `Cn1cc(-c2cn(-c3ccc(OC(F)(F)F)cc3)c(=O)c3c2ccn3Cc2ccccc2)cn1`, the EC50 is under 50 µM.

Turning to `Cn1cc(-c2cn(-c3ccc(OC(F)(F)F)cc3)c(=O)c3c2ccn3C2CC2)cn1`, the half-maximal effective concentration (EC50) was under 50 µM. For `Cc1cc(-c2ccc(F)cc2)cn(-c2ccccc2)c1=O`, the EC50 is under 50 µM.

As for `O=c1c2nccnc2c(-c2ccc(F)cc2)cn1-c1ccc(OC(F)(F)F)cc1`, the EC50 is under 50 µM. Consider `Cc1cc(=O)n(-c2ccc(OC(F)(F)F)cc2)cc1-c1ccc2nonc2c1`, for which the EC50 entry was “in the range around 125 µM”. `O=c1ccc(-c2cccc(Cl)c2)cn1-c1ccccc1F`: the EC50 entry was “in the range around 125 µM”.

These data come from ChEMBL document CHEMBL5725356, “Anti-fibrotic pyridinones” (2017).
